# Experiments:
# Experiment in all cases: relative viability (nuclei count vs DMSO), 5 days (fraction); higher = more cells survive
# BEN = tested on: BEN
# Summary of the method: (§1)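 Lung cancer cell lines in 1536-well plates were dosed by pin tool the day after seeding, either with one drug alone or with a fixed anchor-drug dose plus five library-drug doses (not always all listed) in √10 steps. After 5 days, cells were fixed and their nuclei stained in one step (final 0.05% Triton X-100, 1% formaldehyde, 1 ug/ml Hoechst), then counted on 4× images. Relative viability is the nuclei count in treated wells divided by that in vehicle wells. Values are medians of duplicate plates.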
# NCI-H358 = tested on: NCI-H358
# Summary of the method: as §1
# LCLC-97TM1 = tested on: LCLC-97TM1
# Summary of the method: as §1
# LC-2-ad = tested on: LC-2-ad
# Summary of the method: as §1
# LXF-289 = tested on: LXF-289
# Summary of the method: as §1
# NCI-H2087 = tested on: NCI-H2087
# Summary of the method: as §1
# NCI-H650 = tested on: NCI-H650
# Summary of the method: as §1
# NCI-H596 = tested on: NCI-H596
# Summary of the method: as §1
# HCC-15 = tested on: HCC-15
# Summary of the method: as §1
# NCI-H838 = tested on: NCI-H838
# Summary of the method: as §1
# ChaGo-K-1 = tested on: ChaGo-K-1
# Summary of the method: as §1
# UMC-11 = tested on: UMC-11
# Summary of the method: as §1
# NCI-H1651 = tested on: NCI-H1651
# Summary of the method: as §1
# NCI-H2342 = tested on: NCI-H2342
# Summary of the method: as §1
# LU99A = tested on: LU99A
# Summary of the method: as §1
# HCC-78 = tested on: HCC-78
# Summary of the method: as §1
# NCI-H322M = tested on: NCI-H322M
# Summary of the method: as §1
# PC-3 [JPC-3] = tested on: PC-3 [JPC-3]
# Summary of the method: as §1
# LK-2 = tested on: LK-2
# Summary of the method: as §1
# SK-MES-1 = tested on: SK-MES-1
# Summary of the method: as §1
# NCI-H661 = tested on: NCI-H661
# Summary of the method: as §1
# NCI-H1944 = tested on: NCI-H1944
# Summary of the method: as §1
# NCI-H1666 = tested on: NCI-H1666
# Summary of the method: as §1
smiles,measurement,setting,value
C=C1C(=O)O[C@@H](CCCCCCCC)[C@@H]1C(=O)O [C-75] + N=C(N)NC(=N)NCCc1ccccc1 [Phenformin] (partner 250 µM),relative viability,BEN; first compound 0.08 µM,0.266
same,relative viability,BEN; first compound 0.253 µM,0.274
same,relative viability,BEN; first compound 0.8 µM,0.297
same,relative viability,BEN; first compound 8 µM,0.258
same,relative viability,NCI-H358; first compound 0.08 µM,0.306
same,relative viability,NCI-H358; first compound 0.253 µM,0.328
same,relative viability,NCI-H358; first compound 0.8 µM,0.296
same,relative viability,NCI-H358; first compound 2.53 µM,0.326
same,relative viability,NCI-H358; first compound 8 µM,0.215
same,relative viability,LCLC-97TM1; first compound 0.08 µM,0.421
same,relative viability,LCLC-97TM1; first compound 0.253 µM,0.487
same,relative viability,LCLC-97TM1; first compound 0.8 µM,0.355
same,relative viability,LCLC-97TM1; first compound 2.53 µM,0.372
same,relative viability,LCLC-97TM1; first compound 8 µM,0.431
same,relative viability,LC-2-ad; first compound 0.08 µM,0.561
same,relative viability,LC-2-ad; first compound 0.253 µM,0.566
same,relative viability,LC-2-ad; first compound 0.8 µM,0.544
same,relative viability,LC-2-ad; first compound 2.53 µM,0.483
same,relative viability,LC-2-ad; first compound 8 µM,0.54
same,relative viability,LXF-289; first compound 0.08 µM,0.504
same,relative viability,LXF-289; first compound 0.253 µM,0.543
same,relative viability,LXF-289; first compound 0.8 µM,0.514
same,relative viability,LXF-289; first compound 2.53 µM,0.452
same,relative viability,LXF-289; first compound 8 µM,0.507
same,relative viability,NCI-H2087; first compound 0.08 µM,0.409
same,relative viability,NCI-H2087; first compound 0.253 µM,0.597
same,relative viability,NCI-H2087; first compound 0.8 µM,0.428
same,relative viability,NCI-H2087; first compound 2.53 µM,0.279
same,relative viability,NCI-H2087; first compound 8 µM,0.48
same,relative viability,NCI-H650; first compound 0.08 µM,0.474
same,relative viability,NCI-H650; first compound 0.253 µM,0.409
same,relative viability,NCI-H650; first compound 0.8 µM,0.371
same,relative viability,NCI-H650; first compound 2.53 µM,0.4
same,relative viability,NCI-H650; first compound 8 µM,0.41
same,relative viability,NCI-H596; first compound 0.08 µM,0.891
same,relative viability,NCI-H596; first compound 0.253 µM,0.766
same,relative viability,NCI-H596; first compound 0.8 µM,0.846
same,relative viability,NCI-H596; first compound 2.53 µM,0.513
same,relative viability,NCI-H596; first compound 8 µM,0.717
same,relative viability,HCC-15; first compound 0.08 µM,0.489
same,relative viability,HCC-15; first compound 0.253 µM,0.469
same,relative viability,HCC-15; first compound 0.8 µM,0.42
same,relative viability,HCC-15; first compound 2.53 µM,0.377
same,relative viability,HCC-15; first compound 8 µM,0.446
same,relative viability,NCI-H838; first compound 0.08 µM,0.572
same,relative viability,NCI-H838; first compound 0.8 µM,0.515
same,relative viability,NCI-H838; first compound 2.53 µM,0.453
same,relative viability,NCI-H838; first compound 8 µM,0.49
same,relative viability,ChaGo-K-1; first compound 0.08 µM,0.461
same,relative viability,ChaGo-K-1; first compound 0.253 µM,0.538
same,relative viability,ChaGo-K-1; first compound 0.8 µM,0.453
same,relative viability,ChaGo-K-1; first compound 2.53 µM,0.414
same,relative viability,ChaGo-K-1; first compound 8 µM,0.494
same,relative viability,UMC-11; first compound 0.08 µM,0.335
same,relative viability,UMC-11; first compound 0.253 µM,0.346
same,relative viability,UMC-11; first compound 0.8 µM,0.325
same,relative viability,UMC-11; first compound 2.53 µM,0.278
same,relative viability,UMC-11; first compound 8 µM,0.272
same,relative viability,NCI-H1651; first compound 0.08 µM,0.35
same,relative viability,NCI-H1651; first compound 0.253 µM,0.315
same,relative viability,NCI-H1651; first compound 0.8 µM,0.354
same,relative viability,NCI-H1651; first compound 2.53 µM,0.306
same,relative viability,NCI-H1651; first compound 8 µM,0.291
same,relative viability,NCI-H2342; first compound 0.08 µM,0.542
same,relative viability,NCI-H2342; first compound 0.253 µM,0.634
same,relative viability,NCI-H2342; first compound 0.8 µM,0.664
same,relative viability,NCI-H2342; first compound 2.53 µM,0.512
same,relative viability,NCI-H2342; first compound 8 µM,0.524
same,relative viability,LU99A; first compound 0.08 µM,0.848
same,relative viability,LU99A; first compound 0.253 µM,0.863
same,relative viability,LU99A; first compound 0.8 µM,0.816
same,relative viability,LU99A; first compound 2.53 µM,0.749
same,relative viability,LU99A; first compound 8 µM,0.641
same,relative viability,HCC-78; first compound 0.08 µM,0.844
same,relative viability,HCC-78; first compound 0.253 µM,0.849
same,relative viability,HCC-78; first compound 0.8 µM,0.544
same,relative viability,HCC-78; first compound 2.53 µM,0.595
same,relative viability,HCC-78; first compound 8 µM,0.625
same,relative viability,NCI-H322M; first compound 0.08 µM,0.749
same,relative viability,NCI-H322M; first compound 0.253 µM,0.886
same,relative viability,NCI-H322M; first compound 0.8 µM,0.781
same,relative viability,NCI-H322M; first compound 2.53 µM,0.718
same,relative viability,NCI-H322M; first compound 8 µM,0.789
same,relative viability,PC-3 [JPC-3]; first compound 0.08 µM,0.457
same,relative viability,PC-3 [JPC-3]; first compound 0.253 µM,0.468
same,relative viability,PC-3 [JPC-3]; first compound 0.8 µM,0.47
same,relative viability,PC-3 [JPC-3]; first compound 2.53 µM,0.48
same,relative viability,PC-3 [JPC-3]; first compound 8 µM,0.503
same,relative viability,LK-2; first compound 0.08 µM,0.519
same,relative viability,LK-2; first compound 0.253 µM,0.537
same,relative viability,LK-2; first compound 0.8 µM,0.484
same,relative viability,LK-2; first compound 2.53 µM,0.226
same,relative viability,LK-2; first compound 8 µM,0.273
same,relative viability,SK-MES-1; first compound 0.08 µM,0.652
same,relative viability,SK-MES-1; first compound 0.253 µM,0.697
same,relative viability,SK-MES-1; first compound 0.8 µM,0.636
same,relative viability,SK-MES-1; first compound 2.53 µM,0.658
same,relative viability,SK-MES-1; first compound 8 µM,0.702
same,relative viability,NCI-H661; first compound 0.08 µM,0.313
same,relative viability,NCI-H661; first compound 0.253 µM,0.271
same,relative viability,NCI-H661; first compound 0.8 µM,0.296
same,relative viability,NCI-H661; first compound 2.53 µM,0.237
same,relative viability,NCI-H661; first compound 8 µM,0.288
same,relative viability,NCI-H1944; first compound 0.08 µM,0.21
same,relative viability,NCI-H1944; first compound 0.253 µM,0.163
same,relative viability,NCI-H1944; first compound 0.8 µM,0.179
same,relative viability,NCI-H1944; first compound 8 µM,0.187
same,relative viability,NCI-H1666; first compound 0.08 µM,0.586
same,relative viability,NCI-H1666; first compound 0.253 µM,0.602
same,relative viability,NCI-H1666; first compound 0.8 µM,0.56
same,relative viability,NCI-H1666; first compound 2.53 µM,0.559
same,relative viability,NCI-H1666; first compound 8 µM,0.51

# Reference: the supplement of paper PMC10307832
